Reference: publication PMC4501059, “Responding to the challenge of untreatable gonorrhea: ETX0914, a first-in-class agent with a distinct mechanism-of-action against bacterial Type II topoisomerases” (Scientific Reports, 2015)
Values joined by “and” are separate entries in the source; they are usually repeats but may differ in a detail not shown here. Identical values can stand only once. Like-named read-outs stand apart in the source and are kept apart here.

Legend:
Dog pharmacokinetics = assay type: in vivo, Beagle dog
Experimental: (§1) AZD0914 was analyzed in mouse, rat, dog, monkey plasma using a qualified method which was later validated for human plasma analysis. The validated human method is described below and is representative of the approach taken in other species. AZD0914 was determined in human plasma prepared with K2EDTA as an anticoagulant. AZD0914 and an internal standard (^13C2, ^15N2 AZD0914) were extracted from plasma with tert- butyl methyl ether. After evaporating to dryness under a stream of nitrogen, the residue was reconstituted and quantitated by reverse phase HPLC-MS/MS against a standard curve from 1.00 to 5000 ng/ml. Separation was achieved using a gradient which went from 55% to 85% methanol:acetonitrile (1:1) containing 0.2% formic acid as mobile phase B and 0.2% formic acid in water as mobile phase A at a flow rate of 0.60 ml/min through a Phenomonex Gemini C18 column (50 x 2.0 mm column, […]) heated using a Shimadzu CTO-20AC set to 40 °C. AZD0914 was detected in multiple reaction monitoring (MRM) mode by positive ion electrospray ionization using a Sciex API5500 (Toronto, Canada) mass spectrometer. The ion spray voltage was set to 5500 V and turboionspray temperature was 650 °C. AZD0914 was quantitated using the MRM transition 488.2 → 348.2 using a collision energy of 29 eV. The internal standard, (^13C2, ^15N2 AZD0914), was monitored using identical conditions except for the MRM transition of 492.2 → 348.2.

mouse lymphoma cells = test: in vitro mouse micronucleus aberration assay (MMA); assay type: cell-based; conditions: in vitro
Experimental: (§2) In vitro toxicology. Experiments for assessing micronuclei in mouse lymphoma cells^19 myeloid cytotoxicity^20 and erythroid cytotoxicity^21 were performed as described previously.

[1] = test system: mammalian erythroid cell lines; test: erythroid cytotoxicity (growth inhibition); assay type: cell-based; conditions: read-out: Erythroid IC50
Experimental: as §2

DNA gyrase or Topo IV = test: Malachite Green based ATPase assays; assay type: biochemical
[2] = hepatocyte intrinsic clearance; assay type: in vitro ADME; conditions: female, CD-1, mouse hepatocytes
Source text: Supplement srep11827-s1.doc, table 4 | column: CD-1 mouse (female)

[3] = Single dose pharmacokinetics, mouse; assay type: in vivo, CD-1 mouse
Experimental: as §1

[4] = Single dose pharmacokinetics, rat; assay type: in vivo; conditions: Han-Wister rat (male)
Experimental: as §1

[5] = Phase 1 study in healthy volunteers, oral suspension; assay type: in vivo, human
Experimental: A Phase 1 multipart study[65] in healthy adult volunteers (informed consent with males and females of non-childbearing potential) with ETX0914 was performed under approval of the AstraZeneca Innovative Medicines Safety Review Board and the United States Food and Drug Administration. ETX0914 was administered orally as an aqueous suspension containing 1% w/v povidone K29–32, 0.2% m/v sodium lauryl sulfate and 0.25% w/v glycerin. In Part A of this study, 48 healthy subjects (ranging in age from 19 to 55 years) under fasting conditions received single ascending doses of 200–4000 mg formulated ETX0914 or placebo (6:2, ETX0914:placebo). In Part B, a second set of 18 healthy subjects (ranging in age from 22 to 48 years) were randomized into two equal dosing cohorts receiving a single dose of either 1500 mg ([…]) or 3000 mg ([…]) of ETX0914 in the fasting state and 30 minutes after a meal. Safety monitoring for both Parts A and B included vital signs, electrocardiogram, continuous telemetry, safety laboratory testing (clinical chemistry, haematology and urinalysis) and adverse events monitoring. Blood samples (1 mL) were collected at 0.5, 1, 1.5, 2, 2.5, 3, 4, 5, 6, 8, 10, 12, 24, 36, 48 and 72 h post dose. Urine samples were collected during−12 to 0 hours pre-dose, and 0 to 4, 4 to 8, 8 to 12, 12 to 24, 24 to 48, and 48 to 72 h post-dose. PK parameters were separately determined for the cohorts in each of the Part A and Part B studies. Concentrations of ETX0914 in the plasma and urine were quantified by LC-MS/MS. Plasma PK parameters were calculated using Phoenix WinNonLin software.
as §1

[6] = 28 day oral toxicology study, dog; conditions: for Salient Pathology Findings: 1 month dog (po)
[7] = both sexes, human, plasma, oral, 3000 mg, fasting
[8] = both, beagle, dog, plasma, po, 100 mg/kg/day
[9] = both, beagle, dog, plasma, po, 200 mg/kg/day
[10] = both, beagle, dog, plasma, po, 500 mg/kg/day

## C[C@@H]1CN2c3c(cc4c(N5C(=O)OC[C@@H]5C)noc4c3F)CC3(C(=O)NC(=O)NC3=O)[C@H]2[C@H](C)O1 [ETX0914]
Dog pharmacokinetics; Beagle dog (male)
  Ka: 1.2 h⁻¹
Dog pharmacokinetics; beagle, dog, plasma
  Dog F: 71%
  clearance: 4 mL/min/kg
Dog pharmacokinetics; plasma, Beagle dog (male), IV 2.5 mg/kg, read-out: Clp (IV)
  clearance: 4 mL/min/kg
Dog pharmacokinetics; plasma, Beagle dog (male), IV 2.5 mg/kg, read-out: T1/2 (IV) (converted)
  half-life: 3 h
Dog pharmacokinetics; plasma, Beagle dog (male), IV 2.5 mg/kg, read-out: Vss (IV)
  Vd: 0.8 L/kg
Dog pharmacokinetics; plasma, Beagle dog (male), IV 2.5 / PO 5 mg/kg
  bioavailability: 71%
Dog pharmacokinetics; plasma, Beagle dog (male), PO 5 mg/kg
  Cmax: 7100 nM
Dog pharmacokinetics; plasma, Beagle dog (male), PO 5 mg/kg, read-out: T1/2 (PO) (converted)
  half-life: 3.1 h
Mouse lymphoma cells
  Micronucleus NOEL: > 400 µM
[1]
  IC50: > 100 µM
DNA gyrase or Topo IV
  inhibition of ATPase activity: lack of inhibition of ATPase activity
[2]
  hepatocyte CLint at 1 µM: 7 µL/min/1e6 cells
[3]; CD-1, plasma, mouse, ABT pre-dosing, read-out: CLp after pre-dosing with 1-aminobenzotriazole (ABT)
  clearance: 15 mL/min/kg
[3]; CD-1 mouse (female)
  Ka: 1.7 h⁻¹
[3]; mouse
  lowering of CLp by ABT pre-dosing: ~5 fold
[3]; plasma, CD-1 mouse (female), IV 3 mg/kg, read-out: Clp (IV)
  clearance: 70 mL/min/kg
[3]; plasma, CD-1 mouse (female), IV 3 mg/kg, read-out: T1/2 (IV) (converted)
  half-life: 0.5 h
[3]; plasma, CD-1 mouse (female), IV 3 mg/kg, read-out: Vss (IV)
  Vd: 3.6 L/kg
[3]; plasma, CD-1 mouse (female), IV 3 / PO 10 mg/kg
  bioavailability: 46%
[3]; plasma, CD-1 mouse (female), PO 10 mg/kg
  Cmax: 1700 nM
[3]; plasma, CD-1 mouse (female), PO 10 mg/kg, read-out: T1/2 (PO) (converted)
  half-life: 1.6 h
[4]
  Ka: 1.6 h⁻¹
[4]; plasma, IV 10 mg/kg, read-out: Clp (IV)
  clearance: 22 mL/min/kg
[4]; plasma, IV 10 mg/kg, read-out: T1/2 (IV) (converted)
  half-life: 0.7 h
[4]; plasma, IV 10 mg/kg, read-out: Vss (IV)
  Vd: 1.2 L/kg
[4]; plasma, IV 10 / PO 10 mg/kg
  bioavailability: 34%
[4]; plasma, PO 10 mg/kg
  Cmax: 1700 nM
[4]; plasma, PO 10 mg/kg, read-out: T1/2 (PO) (converted)
  half-life: 1.8 h
[5]; 3000 mg
  increase in AUC with high fat meal: > 40%
[5]; Phase 1, 200–4000 mg
  serious adverse events: No serious adverse events
[5]; Phase 1, reversible in all subjects
  mild and non-serious AEs: transient dysgeusia and headache
[5]; [7]
  AUC: 195 µg·h/mL
  Cmax: 22.9 µg/mL
[5]; both sexes, human, plasma, oral, 3000 mg, fasting, read-out: Tmax
  Tmax: 2.2 h
[5]; both sexes, human, plasma, oral, 3000 mg, preceded by a high fat meal
  AUC: 281 µg·h/mL
[5]; both sexes, human, plasma, oral, 3000 mg, with food
  Cmax: 24 µg/mL
[5]; both sexes, human, plasma, oral, 3000 mg, with food, read-out: Tmax
  Tmax: 4 h
[5]; both sexes, human, plasma, oral, 8 to 72 hour post-dose period
  half-life: 5.2 to 6.25 h
[5]; both sexes, human, plasma, po, fasting, 200–4000 mg single oral dose, read-out: median Tmax
  Tmax: 1.5 to 2.26 h
[5]; both, human, urine, po
  oral dose excreted as parent drug in urine: Less than 5%
[5]; highest 4000 mg dose
  margin of human AUC to NOAEL in dog: 4.8 fold
  margin of human AUC to NOAEL in rat: 6.4 fold
  margin of human Cmax to NOAEL in dog: 3.7 fold
  margin of human Cmax to NOAEL in rat: 4.9 fold
[5]; human AUC0-24h versus dose
  doses at which the efficacious AUC was exceeded: > 800 mg
[6]; 200 mg/kg/day
  Salient Pathology Findings: Testes tubular degeneration partially reversible 3 months post dosing
[6]; 500 mg/kg/day
  Salient Pathology Findings: As above plus: Epididymis cellular debris Caecum/illium/rectum necrosis
[6]; both, beagle, dog, in vivo, po
  NOAEL at 28 days: 100 mg/kg and 100 mg/kg/day
[6]; both, beagle, dog, in vivo, po, 100 mg/kg
  Cmax: 85 µg/mL
[6]; [8]
  AUC: 870 ± 240 µg·h/mL
  Cmax: 90 ± 22 µg/mL
[6]; [9]
  AUC: 2160 ± 460 µg·h/mL
  Cmax: 210 ± 18 µg/mL
[6]; [10]
  AUC: 2780 ± 1140 µg·h/mL
  Cmax: 220 ± 94 µg/mL
[6]; dog
  haematology or platelet count at the NOAEL: no significant changes in haematology or platelet count
[6]; dog, 500 mg/kg/day
  finding at highest dose tested: tachycardia was observed
[6]; dog, oral gavage, 28 days
  tolerated dose: 500 mg/kg/day
